The values below come from patent EP4596574A1, “GLP-1/GCG/GIP TRIPLE-RECEPTOR AGONIST AND USE THEREOF” (Sunshine Lake Pharma Co., Ltd., priority 2022, dated 2024).

The structures appear in SMILES notation. Marks after values point to notes of the source that are not given here.

In one assay the target is T1, GIPR (Homo sapiens, UniProt P48546).
T1 construct: expressed in transfected cells; host or cells: HEK293 (HEK293-GIPR)
T1 sequence (P48546 22-466): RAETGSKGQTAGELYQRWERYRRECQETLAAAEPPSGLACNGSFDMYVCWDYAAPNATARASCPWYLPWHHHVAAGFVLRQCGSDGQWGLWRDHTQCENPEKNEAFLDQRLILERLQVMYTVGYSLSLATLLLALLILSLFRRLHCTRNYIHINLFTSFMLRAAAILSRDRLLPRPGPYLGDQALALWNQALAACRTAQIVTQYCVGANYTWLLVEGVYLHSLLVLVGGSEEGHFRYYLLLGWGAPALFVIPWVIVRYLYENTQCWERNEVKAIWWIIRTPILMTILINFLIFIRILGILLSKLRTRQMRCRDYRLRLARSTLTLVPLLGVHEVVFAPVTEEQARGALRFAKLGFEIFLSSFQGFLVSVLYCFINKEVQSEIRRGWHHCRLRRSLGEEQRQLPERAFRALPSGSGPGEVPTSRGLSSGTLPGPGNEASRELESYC
The assay can be described thus: In vitro cell activity, cAMP production in HEK293 cells expressing GIPR. It counts as cell-based. The procedure, abridged: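 HEK293 cells expressing human GIPR, thawed and diluted to 4×10^5 cells/mL, are stimulated with test compound. cAMP is measured by HTRF competition between cAMP-d2 and anti-cAMP cryptate. EC50 comes from a four-parameter nonlinear fit of signal ratio against concentration.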
In general terms: Cyclic AMP is a second messenger, typically raised through Gs and lowered through Gi signalling.

Another assay concerns the target T2, GLP-1R (Homo sapiens, UniProt P43220).
T2 construct: expressed in transfected cells; host or cells: HEK293 (HEK293-GLP-1R)
The assay can be described thus: In vitro cell activity, cAMP production in HEK293 cells expressing GLP-1R. The class given is cell-based. Put shortly:
(§1)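 HEK293 transfectants, 4×10^5 cells/mL, 384-well. Detection: cAMP-d2 + anti-cAMP cryptate 1:1, RT 1 h dark or 4 °C o/n. Read 665/620 nm; 4-parameter nonlinear fit → EC50.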

Assay [1] can be described thus: Glucose tolerance assessment in normal C57BL/6 mice (Example 4). The class given is in vivo. The conditions noted are these: for Blood glucose level (mM) 15 min / Blood glucose level (mM) 30 min / Blood glucose level (mM) 60 min / Blood glucose level (mM) 90 min / Blood glucose level (mM) 0 min / AUC0-90 min: 3 nmol/kg s.c. single dose, 24 h after administration; for Blood glucose level (mM) 15 min: 15 min after 2 g/kg glucose i.p.; for Blood glucose level (mM) 30 min: 30 min after 2 g/kg glucose i.p.; for Blood glucose level (mM) 60 min: 60 min after 2 g/kg glucose i.p.; for Blood glucose level (mM) 90 min: 90 min after 2 g/kg glucose i.p.; for Blood glucose level (mM) 0 min: basal before 2 g/kg glucose i.p.; for AUC0-90 min: blood glucose AUC, 2 g/kg glucose i.p.; for improvement of glucose tolerance compared with LY3298176: 24 hours after a single administration, 3 nmol/kg. The protocol: Twelve hours after the single administration, the animals were fasted for 12 hours and had free access to water. Blood was collected from the tail vein to determine the basal blood glucose level of each group of animals, and then 2 g/kg glucose solution was injected intraperitoneally. Blood glucose was tested at 15, 30, 60, and 90 min after glucose administration. The blood glucose concentration-time curve was drawn according to the blood glucose values measured at different time points, and the AUC0~90min of each dose group was calculated as shown in Table 4 and Figure 1. Table 4: Effects of single administration of HEC-PT74, HEC-PT75, HEC-PT77, HEC-PT78, HEC-PT80, and HEC-PT82 on glucose tolerance in normal C57 mice 24 h after administration

The target in a further assay is T3, GCGR (Homo sapiens, UniProt P47871).
T3 construct: expressed in transfected cells; host or cells: HEK293 (HEK293-GCGR)
T3 sequence (P47871 26-477, species assumed): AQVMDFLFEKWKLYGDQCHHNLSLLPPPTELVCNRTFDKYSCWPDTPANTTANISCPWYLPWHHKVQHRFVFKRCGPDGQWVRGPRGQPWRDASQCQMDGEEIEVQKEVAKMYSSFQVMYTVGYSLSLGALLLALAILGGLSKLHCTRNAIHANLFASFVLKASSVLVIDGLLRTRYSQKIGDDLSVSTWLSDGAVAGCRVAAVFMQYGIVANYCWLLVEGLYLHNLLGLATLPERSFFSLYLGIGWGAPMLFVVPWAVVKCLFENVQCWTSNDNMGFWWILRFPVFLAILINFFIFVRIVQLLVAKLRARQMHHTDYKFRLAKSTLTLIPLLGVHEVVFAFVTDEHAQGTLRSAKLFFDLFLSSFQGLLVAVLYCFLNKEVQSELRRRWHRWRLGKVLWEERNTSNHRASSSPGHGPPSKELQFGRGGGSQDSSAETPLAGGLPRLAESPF
The assay can be described thus: In vitro cell activity, cAMP production in HEK293 cells expressing GCGR. It counts as cell-based. Put shortly: as §1

T2 sequence (P43220 24-463, species assumed): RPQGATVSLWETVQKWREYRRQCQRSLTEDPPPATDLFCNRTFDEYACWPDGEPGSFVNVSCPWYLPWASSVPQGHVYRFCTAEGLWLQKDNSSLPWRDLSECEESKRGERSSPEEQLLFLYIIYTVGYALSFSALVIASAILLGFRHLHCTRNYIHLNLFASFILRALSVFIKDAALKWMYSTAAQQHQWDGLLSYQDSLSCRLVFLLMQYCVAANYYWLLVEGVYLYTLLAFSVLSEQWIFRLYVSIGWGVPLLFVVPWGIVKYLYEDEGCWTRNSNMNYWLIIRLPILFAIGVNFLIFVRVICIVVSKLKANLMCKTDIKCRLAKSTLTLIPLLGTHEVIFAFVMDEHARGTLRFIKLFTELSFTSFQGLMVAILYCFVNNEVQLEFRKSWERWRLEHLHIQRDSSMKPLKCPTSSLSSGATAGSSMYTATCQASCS

For `CC[C@H](C)[C@H](NC(=O)[C@H](Cc1ccccc1)NC(=O)[C@H](CCC(=O)O)NC(=O)[C@H](CCC(N)=O)NC(=O)[C@H](CCC(N)=O)NC(=O)[C@H](C)NC(=O)[C@H](CCCCNC(=O)COCCOCCNC(=O)CC[C@H](NC(=O)CCCCCCCCCCCCCCCCCCC(=O)O)C(=O)O)NC(=O)[C@H](CCC(=O)O)NC(=O)[C@H](CC(=O)O)NC(=O)[C@H](CC(C)C)NC(=O)[C@H](CC(C)C)NC(=O)[C@@H](NC(=O)[C@H](CO)NC(=O)[C@H](Cc1ccc(O)cc1)NC(=O)[C@H](CC(=O)O)NC(=O)[C@H](CO)NC(=O)[C@@H](NC(=O)[C@](C)(Cc1ccccc1F)NC(=O)[C@@H](NC(=O)CNC(=O)[C@H](CCC(N)=O)NC(=O)C(C)(C)NC(=O)[C@@H](N)Cc1ccc(O)cc1)[C@@H](C)O)[C@@H](C)O)[C@@H](C)CC)C(=O)N[C@@H](CCC(=O)O)C(=O)N[C@@H](Cc1c[nH]c2ccccc12)C(=O)N[C@@H](CC(C)C)C(=O)N[C@@H](CC(C)C)C(=O)N[C@@H](CCC(=O)O)C(=O)NCC(=O)NCC(=O)N1CCC[C@H]1C(=O)N[C@@H](CO)C(=O)N[C@@H](CO)C(=O)NCC(=O)N[C@@H](C)C(=O)N1CCC[C@H]1C(=O)N1CCC[C@H]1C(=O)N1CCC[C@H]1C(=O)N[C@@H](CO)C(=O)O` [HEC-PT78], the EC50 on GIPR stood at 0.215 nM. Moreover, the concentration giving a half-maximal response (EC50) on GLP-1R was determined as 0.532 nM. Further, in assay [1], the “Blood glucose level (mM) 15 min” value was 15.8 ± 2.6 mM, the “Blood glucose level (mM) 30 min” value is 12.0 ± 2.5 mM, the “Blood glucose level (mM) 60 min” value turned out to be 9.2 ± 1.5 mM and the “Blood glucose level (mM) 90 min” value was found to be 7.3 ± 0.7 mM. In assay [1], the “Blood glucose level (mM) 0 min” value was determined as 4.6 ± 0.6 mM and the AUC0-90 min is reported as 927.1±135.2^a. For the same molecule, the EC50 on GCGR came to 4.5 nM.
Molecule `CC[C@H](C)[C@H](NC(=O)[C@H](Cc1ccccc1)NC(=O)[C@H](C)NC(=O)[C@H](CCCNC(=N)N)NC(=O)[C@H](CCC(N)=O)NC(=O)[C@H](C)NC(=O)[C@H](CCCCNC(=O)COCCOCCNC(=O)CC[C@H](NC(=O)CCCCCCCCCCCCCCCCC(=O)O)C(=O)O)NC(=O)[C@H](CCC(=O)O)NC(=O)[C@H](CC(=O)O)NC(=O)[C@H](CC(C)C)NC(=O)[C@H](CC(C)C)NC(=O)[C@@H](NC(=O)[C@H](CO)NC(=O)[C@H](Cc1ccc(O)cc1)NC(=O)[C@H](CC(=O)O)NC(=O)[C@H](CO)NC(=O)[C@@H](NC(=O)[C@](C)(Cc1ccccc1F)NC(=O)[C@@H](NC(=O)CNC(=O)[C@H](Cc1c[nH]cn1)NC(=O)C(C)(C)NC(=O)[C@@H](N)Cc1ccc(O)cc1)[C@@H](C)O)[C@@H](C)O)[C@@H](C)CC)C(=O)N[C@@H](CCC(=O)O)C(=O)N[C@@H](Cc1ccc(O)cc1)C(=O)N[C@@H](CC(C)C)C(=O)N[C@@H](CC(C)C)C(=O)N[C@@H](C)C(=O)NCC(=O)NCC(=O)N1CCC[C@H]1C(=O)N[C@@H](CO)C(=O)N[C@@H](CO)C(=O)NCC(=O)N[C@@H](C)C(=O)N1CCC[C@H]1C(=O)N1CCC[C@H]1C(=O)N1CCC[C@H]1C(=O)N[C@@H](CO)C(=O)O` [HEC-PT75] displayed an EC50 on GIPR of 0.0377 nM. This molecule also yielded an EC50 on GLP-1R of 0.108 nM. Moreover, in assay [1], the “Blood glucose level (mM) 15 min” value was determined as 11.1 ± 3.1 mM, the “Blood glucose level (mM) 30 min” value turned out to be 8.9 ± 3.1 mM, the “Blood glucose level (mM) 60 min” value came to 7.4 ± 2.0 mM and the “Blood glucose level (mM) 90 min” value worked out at 5.6 ± 0.7 mM. Also, in assay [1], the “Blood glucose level (mM) 0 min” value was determined as 4.0 ± 0.4 mM, the “improvement of glucose tolerance compared with LY3298176” value is on record as “more effective in improving glucose tolerance than the positive control LY3298176” and the AUC0-90 min is recorded as 682.0±166.7^a. The molecule further gave an EC50 at GCGR of 0.0672 nM.
In turn, `CC[C@H](C)[C@H](NC(=O)[C@H](Cc1ccccc1)NC(=O)[C@H](CCC(=O)O)NC(=O)[C@H](CCC(N)=O)NC(=O)[C@H](CCC(N)=O)NC(=O)[C@H](C)NC(=O)[C@H](CCCCNC(=O)COCCOCCNC(=O)CC[C@H](NC(=O)CCCCCCCCCCCCCCCCC(=O)O)C(=O)O)NC(=O)[C@H](CCC(=O)O)NC(=O)[C@H](CC(=O)O)NC(=O)[C@H](CC(C)C)NC(=O)[C@H](CC(C)C)NC(=O)[C@@H](NC(=O)[C@H](CO)NC(=O)[C@H](Cc1ccc(O)cc1)NC(=O)[C@H](CC(=O)O)NC(=O)[C@H](CO)NC(=O)[C@@H](NC(=O)[C@](C)(Cc1ccccc1F)NC(=O)[C@@H](NC(=O)CNC(=O)[C@H](Cc1c[nH]cn1)NC(=O)C(C)(C)NC(=O)[C@@H](N)Cc1ccc(O)cc1)[C@@H](C)O)[C@@H](C)O)[C@@H](C)CC)C(=O)N[C@@H](CCC(=O)O)C(=O)N[C@@H](Cc1c[nH]c2ccccc12)C(=O)N[C@@H](CC(C)C)C(=O)N[C@@H](CC(C)C)C(=O)N[C@@H](C)C(=O)NCC(=O)NCC(=O)N1CCC[C@H]1C(=O)N[C@@H](CO)C(=O)N[C@@H](CO)C(=O)NCC(=O)N[C@@H](C)C(=O)N1CCC[C@H]1C(=O)N1CCC[C@H]1C(=O)N1CCC[C@H]1C(=O)N[C@@H](CO)C(=O)O` [HEC-PT80] gave an EC50 at GIPR of 0.0506 nM. Also, at GLP-1R, it took 0.341 nM to reach a half-maximal effect (EC50). In addition, in assay [1], the “Blood glucose level (mM) 15 min” value came to 11.1 ± 2.0 mM, the “Blood glucose level (mM) 30 min” value was 9.3 ± 1.7 mM, the “Blood glucose level (mM) 60 min” value stood at 7.2 ± 1.0 mM and the “Blood glucose level (mM) 90 min” value was 5.5 ± 0.5 mM. Besides, in assay [1], the “Blood glucose level (mM) 0 min” value was determined as 4.6 ± 1.1 mM, the “improvement of glucose tolerance compared with LY3298176” value is reported as “more effective in improving glucose tolerance than the positive control LY3298176” and the AUC0-90 min is on record as 707.6±98.4^a. The same molecule gave an EC50 on GCGR of 1.27 nM.

Usually EC50 stands for the concentration giving half of the maximal effect.
